We go through one compound from BindingDB's records for doi:10.1073/pnas.97.2.925 (Vanderbilt University School of Medicine, 2000).

The IC50 is the point on the concentration scale where inhibition reaches its midpoint. A lower IC50 goes with greater potency.

For experiment [1], the target named is T1, Prostaglandin G/H synthase 2 (Homo sapiens, UniProt P35354).
T1 sequence (P35354 whole entry): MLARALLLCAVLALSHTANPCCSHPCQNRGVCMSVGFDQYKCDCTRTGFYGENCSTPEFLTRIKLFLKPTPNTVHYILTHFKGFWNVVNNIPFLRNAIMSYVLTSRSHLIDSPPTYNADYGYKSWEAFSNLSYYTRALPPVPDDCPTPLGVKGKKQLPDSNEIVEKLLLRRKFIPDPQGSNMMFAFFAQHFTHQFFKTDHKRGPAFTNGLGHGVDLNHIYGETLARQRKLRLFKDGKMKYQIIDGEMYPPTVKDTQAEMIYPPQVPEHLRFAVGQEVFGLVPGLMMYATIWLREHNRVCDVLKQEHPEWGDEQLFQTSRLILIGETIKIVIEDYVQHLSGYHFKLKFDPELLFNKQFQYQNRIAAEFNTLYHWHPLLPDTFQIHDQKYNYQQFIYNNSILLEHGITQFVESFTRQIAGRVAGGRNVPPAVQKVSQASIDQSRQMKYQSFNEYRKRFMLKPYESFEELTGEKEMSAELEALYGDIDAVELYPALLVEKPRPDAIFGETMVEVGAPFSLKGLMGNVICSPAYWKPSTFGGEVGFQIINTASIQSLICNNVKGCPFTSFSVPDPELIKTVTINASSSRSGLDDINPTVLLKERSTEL

Experiment [2] has as its target T2, Prostaglandin G/H synthase 1 (Ovis aries, UniProt P05979).
T2 sequence (P05979 whole entry): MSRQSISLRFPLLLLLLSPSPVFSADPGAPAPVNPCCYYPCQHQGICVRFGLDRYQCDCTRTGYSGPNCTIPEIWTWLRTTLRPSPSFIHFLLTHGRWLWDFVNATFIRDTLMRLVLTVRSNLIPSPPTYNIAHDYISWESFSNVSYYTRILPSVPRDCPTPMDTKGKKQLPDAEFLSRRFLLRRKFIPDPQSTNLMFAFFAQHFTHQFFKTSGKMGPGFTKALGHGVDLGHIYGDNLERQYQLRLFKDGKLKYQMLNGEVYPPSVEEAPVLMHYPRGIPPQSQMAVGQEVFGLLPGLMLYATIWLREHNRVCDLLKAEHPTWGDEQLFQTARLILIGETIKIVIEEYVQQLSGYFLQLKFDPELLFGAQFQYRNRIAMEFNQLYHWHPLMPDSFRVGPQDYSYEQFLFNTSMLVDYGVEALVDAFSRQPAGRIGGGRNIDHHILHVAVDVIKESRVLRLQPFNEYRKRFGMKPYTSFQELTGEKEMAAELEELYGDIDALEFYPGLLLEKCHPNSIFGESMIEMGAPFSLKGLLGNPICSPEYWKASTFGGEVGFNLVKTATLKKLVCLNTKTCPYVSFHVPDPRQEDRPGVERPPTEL

Take `Cc1ccc(Cl)c(Nc2ccccc2C(=O)NCC(=O)O)c1Cl` [2-({2-[(2,6-dichloro-3-methylphenyl)amino]phenyl}formamido)acetic acid]: the results for the half-inhibitory concentration (IC50) in experiment [1] and in experiment [2] were 400 nM and 300 nM, respectively.
